Experimental data taken from PMC12366525, “Characterization of allosteric modulators that disrupt androgen receptor co-activator protein-protein interactions to alter transactivation–Drug leads for metastatic castration resistant prostate cancer” (SLAS discovery : advancing life sciences R & D, 2023).
“Also recorded” adds a separate entry of the source.

What was measured:
AR = target: T1, AR (Homo sapiens, UniProt P10275, T878A); experiment: Western blotting cellular thermal shift assay for AR in C4–2 cells; assay type: cell-based; details: 1 h at 37 °C prior to heat shock at 46 °C, hits and enzalutamide 20 μM, DHT 10 nM
T1 construct: DHT-induced full length AR directed TA; endogenous in cells; host or cells: C4–2 castration resistant prostate cancer cells
T1 sequence (P10275 1-920 T878A): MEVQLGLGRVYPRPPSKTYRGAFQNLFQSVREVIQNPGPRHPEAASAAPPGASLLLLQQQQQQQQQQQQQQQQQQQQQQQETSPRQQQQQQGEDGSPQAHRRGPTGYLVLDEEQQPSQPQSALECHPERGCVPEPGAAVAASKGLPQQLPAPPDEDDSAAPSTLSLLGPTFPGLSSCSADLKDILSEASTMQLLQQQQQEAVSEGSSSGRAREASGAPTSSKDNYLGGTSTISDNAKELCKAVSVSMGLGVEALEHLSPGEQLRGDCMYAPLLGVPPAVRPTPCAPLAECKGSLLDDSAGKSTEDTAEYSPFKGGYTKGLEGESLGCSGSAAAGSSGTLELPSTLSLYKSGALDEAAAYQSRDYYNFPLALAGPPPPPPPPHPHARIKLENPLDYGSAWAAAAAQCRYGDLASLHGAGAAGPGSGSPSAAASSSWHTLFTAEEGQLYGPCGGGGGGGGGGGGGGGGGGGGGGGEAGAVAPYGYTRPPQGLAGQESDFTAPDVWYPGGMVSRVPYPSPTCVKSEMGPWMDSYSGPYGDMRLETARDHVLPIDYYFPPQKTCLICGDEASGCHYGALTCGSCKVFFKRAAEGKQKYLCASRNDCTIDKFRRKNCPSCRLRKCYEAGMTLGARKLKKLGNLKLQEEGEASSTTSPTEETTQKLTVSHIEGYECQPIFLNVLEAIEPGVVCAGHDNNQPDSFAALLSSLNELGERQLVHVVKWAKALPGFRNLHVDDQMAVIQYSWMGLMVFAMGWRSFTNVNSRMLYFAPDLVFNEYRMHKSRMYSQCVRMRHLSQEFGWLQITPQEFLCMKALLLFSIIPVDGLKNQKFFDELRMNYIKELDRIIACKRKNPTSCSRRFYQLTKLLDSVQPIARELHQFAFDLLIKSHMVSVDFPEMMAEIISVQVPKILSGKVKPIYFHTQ
Experimental: C4–2 cells were harvested by trypsinization, washed 1x by centrifugation at 270 × g for 5 min and resuspension in PBS, counted, centrifugated at 270 × g for 5 min and resuspended at 7 × 10 [6] cells per mL in Opti-MEM medium (Gibco, Gaithersburg, MD). 50 μL of C4–2 cell suspension (3.5 × 10 [5] cells) were then transferred to PCR tubes that were placed in a T-100 thermocycler (BioRad, Hercules, CA) and a 2 °C interval temperature step gradient from 37 °C to 53 °C was applied. Cells were maintained at each step of the temperature gradient for 5 min and then tubes were withdrawn and placed on ice. 50 μL of cell lysis buffer, 500 mM NaCl, 1% NP-40, 1x protease inhibitor cocktail in PBS were added to the heat shocked cell suspensions in PCR tubes and placed on ice for an additional 30 min. […] 45 μL of cell lysis supernatants were mixed with 15 μL of 5x SDS-PAGE sample buffer and placed in a heat block at 100 °C for 5 min. The protein constituents of heat shocked C4–2 cell lysis supernatants were separated by SDS-PAGE on 8% separating gels, transferred to nitrocellulose membranes that were blocked for 1 h at room temperature in 5% non-fat milk in TBST, and then probed overnight at 4 °C with a 1:1000 dilution of either rabbit anti-AR (Cell Signaling, Danvers, MA) or rabbit anti-TIF2 (Bethyl Laboratories, Waltham, MA) primary antibodies in TBST containing 5% non-fat milk. Membranes were then washed 3x in TBST buffer for 10 min, then incubated with a 1:10,000 dilution of the goat anti-rabbit IgG HRP conjugated secondary antibody (Invitrogen, Carlsbad,CA) in TBST containing 5% non-fat milk for 1 h at room temperature. Western blots were then washed 3x in TBST buffer and developed with Pierce ECL western blotting substrate. Images of ECL western blots were acquired on an iBright 1500 imaging system and quantified using the iBright image analysis software.

HEK 293 cells = experiment: M2H viability counter screen; assay type: cell-based; details: cytotoxicity counter screen; read-out: M2H viability CS GI50

Row | Structure (SMILES) | Effect on AR thermal stability, western blot CETSA (AR) | GI50 (HEK 293 cells)
1 | Cc1ccccc1-c1cc(O)c2c(c1)CN(c1nc(C(N)=O)cs1)CCO2 [S1–1] | did not stabilize AR, but blocked DHT-enhanced AR stabilization; also recorded: only partially blocked DHT-enhanced AR stabilization | –
2 | Cc1ccccc1-c1cc(O)c2c(c1)CN(c1nccs1)CCO2 [S1–3] | – | > 100 µM
3 | Cc1nsc(NC(=O)N2CCC(Sc3ccccc3C)CC2)n1 [S2–6] | did not stabilize AR, but blocked DHT-enhanced AR stabilization; also recorded: blocked DHT-enhanced AR thermal stabilization below DMSO baseline levels | –
4 | Cc1c(-c2ccccc2F)[nH]c2ccc(CNC(=O)CCc3cn[nH]c3)cc12 [S3–11] | did not stabilize AR, but blocked DHT-enhanced AR stabilization; also recorded: only partially blocked DHT-enhanced AR stabilization | –
